Calls of active or inactive are those of the source. The calls are words filed in the database; no cut-off is given here.
What was measured:
[1] = Intrinsic clearance in human liver measured upto 60 mins in presence of NADPH by LC/MS/MS analysis; assay type: ADME, tissue-based; conditions: read-out: CLH
CYP2C19 = CYP2C19 (Homo sapiens, UniProt P33261); assay: Inhibition of CYP2C19 (unknown origin) at 10 uM incubated for 20 mins in presence of NADPH by LC/MS/MS analysis relative to control; assay type: ADME
Sequence of CYP2C19 (P33261 whole entry): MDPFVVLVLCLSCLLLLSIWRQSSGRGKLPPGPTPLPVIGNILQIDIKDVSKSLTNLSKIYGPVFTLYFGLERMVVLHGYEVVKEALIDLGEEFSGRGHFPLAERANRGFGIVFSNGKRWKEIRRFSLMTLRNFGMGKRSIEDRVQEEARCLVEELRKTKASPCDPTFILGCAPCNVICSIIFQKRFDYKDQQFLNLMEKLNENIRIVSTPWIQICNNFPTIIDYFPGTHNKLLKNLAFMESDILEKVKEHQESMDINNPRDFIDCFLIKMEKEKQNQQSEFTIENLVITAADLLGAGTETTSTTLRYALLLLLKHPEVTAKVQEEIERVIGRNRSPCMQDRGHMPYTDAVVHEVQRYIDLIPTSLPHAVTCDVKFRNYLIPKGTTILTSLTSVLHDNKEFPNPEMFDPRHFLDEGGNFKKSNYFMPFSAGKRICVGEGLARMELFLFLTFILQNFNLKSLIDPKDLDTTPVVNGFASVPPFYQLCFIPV

[2] = Intrinsic clearance in human liver microsomes measured upto 60 mins in presence of NADPH by LC/MS/MS analysis; assay type: ADME, Microsome; conditions: read-out: CLH
[3] = Half life in human liver microsomes measured upto 60 mins in presence of NADPH by LC/MS/MS analysis; assay type: ADME, Microsome
MCF7 = assay: cells; conditions: Homo sapiens, MCF7, 72 h
Description: Antiproliferative activity against human MCF7 cells assessed as inhibition of cell growth incubated for 72 hrs by CCK-8 assay

CYP2C9 = CYP2C9 (Homo sapiens, UniProt P11712); assay: Inhibition of CYP2C9 (unknown origin) at 10 uM incubated for 20 mins in presence of NADPH by LC/MS/MS analysis relative to control; assay type: ADME
Sequence of CYP2C9 (P11712 whole entry): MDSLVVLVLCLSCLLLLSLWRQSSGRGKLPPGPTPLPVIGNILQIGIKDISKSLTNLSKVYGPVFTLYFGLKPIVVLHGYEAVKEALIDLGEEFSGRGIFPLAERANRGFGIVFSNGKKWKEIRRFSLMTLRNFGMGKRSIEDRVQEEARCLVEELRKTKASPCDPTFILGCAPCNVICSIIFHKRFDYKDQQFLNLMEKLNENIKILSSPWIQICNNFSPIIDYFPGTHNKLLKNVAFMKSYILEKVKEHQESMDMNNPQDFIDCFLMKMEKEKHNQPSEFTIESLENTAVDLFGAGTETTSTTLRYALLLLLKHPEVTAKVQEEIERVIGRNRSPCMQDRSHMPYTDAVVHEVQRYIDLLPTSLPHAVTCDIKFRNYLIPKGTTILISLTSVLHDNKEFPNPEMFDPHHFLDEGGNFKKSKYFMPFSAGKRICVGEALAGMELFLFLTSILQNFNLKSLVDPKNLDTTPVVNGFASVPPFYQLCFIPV

[4] = target: T1, Amine oxidase [flavin-containing] B (Homo sapiens, UniProt P27338)
T1 sequence (P27338 whole entry): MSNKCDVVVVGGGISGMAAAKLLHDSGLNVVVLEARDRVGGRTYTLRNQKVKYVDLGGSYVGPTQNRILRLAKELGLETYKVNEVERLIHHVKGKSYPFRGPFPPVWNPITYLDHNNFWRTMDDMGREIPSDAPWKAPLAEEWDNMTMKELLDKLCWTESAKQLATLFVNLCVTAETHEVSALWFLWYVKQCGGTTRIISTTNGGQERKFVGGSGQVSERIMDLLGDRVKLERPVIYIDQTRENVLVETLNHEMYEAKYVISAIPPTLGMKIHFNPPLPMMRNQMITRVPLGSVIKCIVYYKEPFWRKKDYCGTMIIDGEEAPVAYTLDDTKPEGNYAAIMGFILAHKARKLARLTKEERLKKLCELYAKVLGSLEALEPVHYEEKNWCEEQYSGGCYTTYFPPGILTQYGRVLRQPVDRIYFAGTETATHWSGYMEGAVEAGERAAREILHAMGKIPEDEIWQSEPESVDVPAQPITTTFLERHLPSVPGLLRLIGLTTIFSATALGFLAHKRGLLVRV
Description: Inhibition of recombinant MAO-B (unknown origin) incubated for 60 mins by luminescence based flow cytometry

[5] = Toxicity in BALB/c mouse xenografted with human A549 cells assessed as change in body weight at 10 mg/kg,ip administrated for 15 days; assay type: organism-based; conditions: in vivo, 360 h, time 15 day
[6] = target: T2, Amine oxidase [flavin-containing] A (Homo sapiens, UniProt P21397)
T2 sequence (P21397 whole entry): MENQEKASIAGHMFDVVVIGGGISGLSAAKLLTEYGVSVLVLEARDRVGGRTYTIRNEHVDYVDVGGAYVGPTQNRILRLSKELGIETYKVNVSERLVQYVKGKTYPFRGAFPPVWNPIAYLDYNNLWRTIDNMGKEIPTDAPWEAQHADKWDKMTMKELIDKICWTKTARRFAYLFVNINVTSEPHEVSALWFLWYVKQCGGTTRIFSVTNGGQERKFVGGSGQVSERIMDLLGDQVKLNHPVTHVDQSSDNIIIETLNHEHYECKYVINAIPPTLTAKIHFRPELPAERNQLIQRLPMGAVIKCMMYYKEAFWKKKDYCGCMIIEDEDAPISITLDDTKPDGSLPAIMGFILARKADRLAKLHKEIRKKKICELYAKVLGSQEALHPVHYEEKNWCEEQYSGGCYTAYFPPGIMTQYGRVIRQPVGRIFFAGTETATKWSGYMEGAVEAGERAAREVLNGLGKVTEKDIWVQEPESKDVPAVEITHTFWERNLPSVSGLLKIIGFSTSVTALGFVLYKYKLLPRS
Description: Inhibition of recombinant MAO-A (unknown origin) incubated for 60 mins by luminescence based flow cytometry

A549 [7] = assay: cells; conditions: Homo sapiens, A549, 72 h
Description: Antiproliferative activity against human A549 cells assessed as inhibition of cell growth incubated for 72 hrs by CCK-8 assay

MGC-803 = assay: cells; conditions: Homo sapiens, MGC-803, 72 h
Description: Antiproliferative activity against human MGC-803 cells assessed as inhibition of cell growth incubated for 72 hrs by CCK-8 assay

CYP1A2 = target: T3, CYP1A2 (Homo sapiens, UniProt P05177); assay: Inhibition of CYP1A2 (unknown origin) at 10 uM incubated for 20 mins in presence of NADPH by LC/MS/MS analysis relative to control; assay type: ADME
T3 sequence (P05177 whole entry): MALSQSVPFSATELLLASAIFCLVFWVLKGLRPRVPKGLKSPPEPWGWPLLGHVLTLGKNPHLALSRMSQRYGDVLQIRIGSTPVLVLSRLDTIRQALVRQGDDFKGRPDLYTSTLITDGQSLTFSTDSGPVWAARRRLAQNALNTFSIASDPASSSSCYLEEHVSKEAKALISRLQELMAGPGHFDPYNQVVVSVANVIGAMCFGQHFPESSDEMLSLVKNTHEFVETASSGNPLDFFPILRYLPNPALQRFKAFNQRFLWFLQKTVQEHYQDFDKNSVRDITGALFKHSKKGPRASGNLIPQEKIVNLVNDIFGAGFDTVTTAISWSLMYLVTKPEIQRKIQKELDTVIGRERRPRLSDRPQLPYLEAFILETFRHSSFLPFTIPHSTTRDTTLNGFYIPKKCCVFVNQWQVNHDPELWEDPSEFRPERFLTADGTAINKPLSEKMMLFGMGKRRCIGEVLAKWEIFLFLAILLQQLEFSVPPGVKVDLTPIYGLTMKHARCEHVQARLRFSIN

CYP3A4 = CYP3A4 (Homo sapiens, UniProt P08684); assay: Inhibition of CYP3A4 (unknown origin) at 10 uM incubated for 20 mins in presence of NADPH by LC/MS/MS analysis relative to control; assay type: ADME
Sequence of CYP3A4 (P08684 whole entry): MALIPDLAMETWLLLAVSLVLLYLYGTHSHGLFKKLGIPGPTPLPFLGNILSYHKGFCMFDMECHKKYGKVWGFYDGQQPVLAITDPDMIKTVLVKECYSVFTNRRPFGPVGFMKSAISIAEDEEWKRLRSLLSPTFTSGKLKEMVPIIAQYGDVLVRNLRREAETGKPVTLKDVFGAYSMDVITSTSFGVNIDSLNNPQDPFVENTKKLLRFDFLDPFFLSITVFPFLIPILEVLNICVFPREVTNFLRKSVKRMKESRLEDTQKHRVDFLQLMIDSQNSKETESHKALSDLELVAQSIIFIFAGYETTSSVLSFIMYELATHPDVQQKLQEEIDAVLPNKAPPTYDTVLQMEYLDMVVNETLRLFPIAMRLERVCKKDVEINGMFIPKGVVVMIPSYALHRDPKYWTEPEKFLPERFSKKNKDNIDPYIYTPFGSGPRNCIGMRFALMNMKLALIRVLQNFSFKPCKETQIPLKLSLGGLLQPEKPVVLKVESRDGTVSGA

HeLa = assay: Antiproliferative activity against human HeLa cells assessed as inhibition of cell growth incubated for 72 hrs by CCK-8 assay; assay type: functional, cell-based
in vitro = conditions: human, THLE-2 cells
Description: Antiproliferative activity against human THLE-2 cells assessed as inhibition of cell growth incubated for 72 hrs by CCK-8 assay

[8] = target: Voltage-gated inwardly rectifying potassium channel KCNH2 (Homo sapiens, UniProt Q12809); assay: Inhibition of human ERG stably expressed in CHO cells by patch clamp assay; assay type: toxicity, cell-based
Sequence of Voltage-gated inwardly rectifying potassium channel KCNH2 (Q12809 whole entry): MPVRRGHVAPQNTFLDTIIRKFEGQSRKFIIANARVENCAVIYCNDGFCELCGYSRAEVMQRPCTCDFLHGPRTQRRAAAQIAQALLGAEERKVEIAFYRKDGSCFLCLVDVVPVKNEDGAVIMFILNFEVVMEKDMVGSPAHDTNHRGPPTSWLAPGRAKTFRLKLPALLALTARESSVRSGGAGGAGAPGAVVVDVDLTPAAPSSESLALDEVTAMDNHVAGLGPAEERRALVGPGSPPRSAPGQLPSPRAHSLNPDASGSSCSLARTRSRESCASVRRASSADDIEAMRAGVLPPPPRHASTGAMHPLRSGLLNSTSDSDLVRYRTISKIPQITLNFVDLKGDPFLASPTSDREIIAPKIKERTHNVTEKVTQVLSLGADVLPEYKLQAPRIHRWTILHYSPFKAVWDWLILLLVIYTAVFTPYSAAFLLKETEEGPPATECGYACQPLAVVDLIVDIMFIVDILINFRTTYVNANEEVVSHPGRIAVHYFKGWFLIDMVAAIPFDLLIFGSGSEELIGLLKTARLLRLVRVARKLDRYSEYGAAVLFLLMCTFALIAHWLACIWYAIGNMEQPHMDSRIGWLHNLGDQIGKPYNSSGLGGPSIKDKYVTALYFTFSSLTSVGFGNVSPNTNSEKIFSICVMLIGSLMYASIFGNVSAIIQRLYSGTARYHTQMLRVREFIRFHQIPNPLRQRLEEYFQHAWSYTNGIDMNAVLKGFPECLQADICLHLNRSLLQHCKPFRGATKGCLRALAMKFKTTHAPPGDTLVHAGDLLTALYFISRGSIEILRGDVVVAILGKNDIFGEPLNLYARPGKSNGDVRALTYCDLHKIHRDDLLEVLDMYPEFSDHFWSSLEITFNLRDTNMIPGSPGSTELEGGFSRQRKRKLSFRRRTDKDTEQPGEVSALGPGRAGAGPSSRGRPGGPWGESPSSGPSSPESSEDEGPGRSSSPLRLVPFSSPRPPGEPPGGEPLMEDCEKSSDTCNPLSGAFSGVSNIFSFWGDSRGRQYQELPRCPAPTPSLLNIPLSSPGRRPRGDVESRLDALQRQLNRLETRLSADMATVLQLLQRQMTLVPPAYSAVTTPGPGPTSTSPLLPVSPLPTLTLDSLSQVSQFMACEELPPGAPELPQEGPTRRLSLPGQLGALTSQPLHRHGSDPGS

A549 [9] = assay: Antitumor activity against human A549 cells xenografted in BALB/c mouse assessed as reduction in tumor growth at 10 mg/kg,ip administrated for 15 days; assay type: functional, organism-based; conditions: time 15.0 day
CYP2D6 = CYP2D6 (Homo sapiens, UniProt P10635); assay: Inhibition of CYP2D6 (unknown origin) at 10 uM incubated for 20 mins in presence of NADPH by LC/MS/MS analysis relative to control; assay type: ADME
Sequence of CYP2D6 (P10635 whole entry): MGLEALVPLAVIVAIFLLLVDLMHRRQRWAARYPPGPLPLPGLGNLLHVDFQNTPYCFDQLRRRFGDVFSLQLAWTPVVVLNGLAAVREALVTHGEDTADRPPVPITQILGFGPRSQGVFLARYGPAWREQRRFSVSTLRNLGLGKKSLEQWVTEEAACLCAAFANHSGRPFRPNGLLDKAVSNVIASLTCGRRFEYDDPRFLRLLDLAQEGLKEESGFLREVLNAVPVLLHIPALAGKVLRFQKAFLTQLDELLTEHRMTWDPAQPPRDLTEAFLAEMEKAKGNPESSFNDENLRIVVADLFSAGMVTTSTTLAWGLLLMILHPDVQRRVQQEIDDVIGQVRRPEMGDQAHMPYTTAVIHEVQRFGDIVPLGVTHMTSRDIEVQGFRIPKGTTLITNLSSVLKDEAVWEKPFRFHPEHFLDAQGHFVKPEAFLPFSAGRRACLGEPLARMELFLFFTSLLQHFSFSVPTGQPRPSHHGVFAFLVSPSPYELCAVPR

A549 [10] = assay: Induction of apoptosis in human A549 cells at 4 uM incubated for 48 hrs by Annexin V-FITC/PI staining based flow cytometry method; assay type: functional
NCI-H460 = assay: cells; conditions: Homo sapiens, NCI-H460, 72 h
Description: Antiproliferative activity against human NCI-H460 cells assessed as inhibition of cell growth incubated for 72 hrs by CCK-8 assay

- CLint scaled [1]: 22.1 mL/min/kg
- inhibition at 20 min, 10 µM (CYP2C19): 10.5%
- microsomal CLint [2]: 24.5 µL/min/mg
- half-life [3]: 56.6 min
- IC50 (MCF7): 10.5 µM
- inhibition at 20 min, 10 µM (CYP2C9): 3.6%
- IC50 [4]: > 20 µM
- IC50 [6]: > 20 µM
- IC50 (A549 [7]): 3.6 µM
- IC50 (MGC-803): 11.5 µM
- inhibition at 20 min, 10 µM (CYP1A2): 4.9%
- inhibition at 20 min, 10 µM (CYP3A4): 19%
- IC50 (HeLa): 10.2 µM
- IC50 at 72 h (in vitro): 5.7 µM
- inhibition at 20 min, 10 µM (CYP2D6): 88.6%
- IC50 (NCI-H460): 4.8 µM
SMILES: Cc1ccc(-c2cc3occ(CN4CCC[C@H](N)C4)c3cc2-c2ccc(C#N)cc2)cc1
- Activity [5]: Non-Toxic
- IC50 [8]: 6.06 µM
- Activity (A549 [9]): Active
- Activity (A549 [10]): 20.94%

From ChEMBL document CHEMBL5352388 (Eur J Med Chem, 2022)
